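Growth conditions: 96-well plates. Treatment: test compound, 48 hours, 5 concentrations. Analysis: linear interpolation between bracketing concentrations; unreached endpoints set to highest concentration. Here, GI50 denotes the concentration required for 50% inhibition of growth.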 Activity calls are given as the source filed them. Rule as the data show it: active = GI50 up to about 1.1 µM and inactive = higher.
Experiments:
Test in all cases: NCI tumour cell line growth inhibition, 48 h
[1] = tested on: M14
[2] = tested on: SF-295
[3] = tested on: LOX IMVI
[4] = tested on: OVCAR-5
[5] = tested on: HOP-92
[6] = tested on: UACC-257
[7] = tested on: PC-3
[8] = tested on: U-251
[9] = tested on: SK-MEL-2
[10] = tested on: SF-268
[11] = tested on: CCRF-CEM
[12] = tested on: OVCAR-4
[13] = tested on: HCT-116
[14] = tested on: UACC-62
[15] = tested on: SF-539
[16] = tested on: NCI-H226
[17] = tested on: SNB-19
[18] = tested on: SW-620
[19] = tested on: SNB-75
[20] = tested on: SR

Structure (SMILES)	GI50 [1]	GI50 [2]	GI50 [3]	GI50 [4]	GI50 [5]	GI50 [6]	GI50 [7]	GI50 [8]	GI50 [9]	GI50 [10]	GI50 [11]	GI50 [12]	GI50 [13]	GI50 [14]	GI50 [15]	GI50 [16]	GI50 [17]	GI50 [18]	GI50 [19]	GI50 [20]
CCOS(C)(=O)=O [METHANESULFONIC ACID ETHYL ESTER]	> 100 µM (inactive)	> 100 µM (inactive)	> 100 µM (inactive)	> 100 µM (inactive)	17 µM (inactive)	> 100 µM (inactive)	> 100 µM (inactive)	> 100 µM (inactive)	> 100 µM (inactive)	> 100 µM (inactive)	> 100 µM (inactive)	> 100 µM (inactive)	> 100 µM (inactive)	> 100 µM (inactive)	> 100 µM (inactive)	> 100 µM (inactive)	> 100 µM (inactive)	> 100 µM (inactive)		
O=[N+]([O-])c1ccc(C2c3c(O)nc(S)nc3Oc3nc(S)nc(O)c32)cc1	> 100 µM (inactive)	> 100 µM (inactive)	> 100 µM (inactive)	> 100 µM (inactive)	> 100 µM (inactive)	> 100 µM (inactive)	> 100 µM (inactive)	> 100 µM (inactive)	> 100 µM (inactive)		> 100 µM (inactive)	> 100 µM (inactive)	> 100 µM (inactive)	> 100 µM (inactive)		> 100 µM (inactive)	> 100 µM (inactive)	> 100 µM (inactive)		
CCC(=O)C(CCN1CCC(N2C(=O)C(CCC#N)c3ccccc32)CC1)(c1ccccc1)c1ccccc1 (stereo not drawn)	10.1 µM (inactive)	13.3 µM (inactive)	12.8 µM (inactive)	22.3 µM (inactive)		13 µM (inactive)	18.5 µM (inactive)	14.6 µM (inactive)	13.9 µM (inactive)	16.1 µM (inactive)			4.9 µM (inactive)	15.6 µM (inactive)	18.3 µM (inactive)	17.3 µM (inactive)	17.2 µM (inactive)	11.8 µM (inactive)	12.9 µM (inactive)	0.0486 µM (active)
S=C(Nc1ccccc1)c1ccc(CN2CCCCC2)s1	16 µM (inactive)	18.5 µM (inactive)	17.7 µM (inactive)	16.2 µM (inactive)		19.4 µM (inactive)	29.7 µM (inactive)	19 µM (inactive)	20.5 µM (inactive)	26.4 µM (inactive)	16.4 µM (inactive)	35.6 µM (inactive)	17.5 µM (inactive)	18.7 µM (inactive)	37.8 µM (inactive)		20.2 µM (inactive)	16.4 µM (inactive)		15.6 µM (inactive)
CC(=O)OC1CC[C@@]2(C)C(=CC[C@@H]3[C@@H]2CC[C@]2(C)Nc4c(cnn4-c4ccc(F)cc4)C[C@@H]32)C1 (stereo partly drawn)	30.5 µM (inactive)	4.53 µM (inactive)	7.85 µM (inactive)	> 87.5 µM (inactive)	53.5 µM (inactive)	45.1 µM (inactive)	23.1 µM (inactive)	7.43 µM (inactive)	17.9 µM (inactive)	39.4 µM (inactive)	6.46 µM (inactive)	> 53.5 µM (inactive)	7.4 µM (inactive)	15.8 µM (inactive)	5.33 µM (inactive)	59.7 µM (inactive)	30.9 µM (inactive)	22.9 µM (inactive)	16.8 µM (inactive)	
CO[C@@]12C[C@@H](CNC(=O)c3cc(Br)c[nH]3)O[C@@H]1NC(=O)N2	> 100 µM (inactive)	> 100 µM (inactive)	> 100 µM (inactive)	> 100 µM (inactive)		> 100 µM (inactive)	> 100 µM (inactive)	> 100 µM (inactive)	> 100 µM (inactive)	> 100 µM (inactive)	> 100 µM (inactive)	> 100 µM (inactive)	> 100 µM (inactive)	> 100 µM (inactive)	> 100 µM (inactive)	> 100 µM (inactive)	> 100 µM (inactive)	> 100 µM (inactive)	> 100 µM (inactive)	
COC(=O)C12CCCN1CCC2	> 100 µM (inactive)	> 100 µM (inactive)	> 100 µM (inactive)	> 100 µM (inactive)		> 100 µM (inactive)	> 100 µM (inactive)	> 100 µM (inactive)	> 100 µM (inactive)	> 100 µM (inactive)	> 100 µM (inactive)	> 100 µM (inactive)	> 100 µM (inactive)	> 100 µM (inactive)		> 100 µM (inactive)	> 100 µM (inactive)	> 100 µM (inactive)	> 100 µM (inactive)	> 100 µM (inactive)
COC(=O)/C=C(C)/C=C\COC1CCCCO1 (stereo not drawn)	> 100 µM (inactive)	> 100 µM (inactive)	> 100 µM (inactive)	> 100 µM (inactive)		> 100 µM (inactive)	> 100 µM (inactive)	> 100 µM (inactive)	> 100 µM (inactive)	> 100 µM (inactive)	> 100 µM (inactive)	> 100 µM (inactive)	> 100 µM (inactive)	> 100 µM (inactive)		> 100 µM (inactive)	> 100 µM (inactive)	> 100 µM (inactive)	> 100 µM (inactive)	> 100 µM (inactive)
COc1cc2c(cc1O)C(=O)O[C@@H]1CC=C3CCN(C)[C@H]3[C@H]21	> 25 µM (inactive)	> 25 µM (inactive)		> 25 µM (inactive)		> 25 µM (inactive)	> 25 µM (inactive)	> 25 µM (inactive)	> 25 µM (inactive)	> 25 µM (inactive)	> 25 µM (inactive)	> 25 µM (inactive)	> 25 µM (inactive)	> 25 µM (inactive)		> 25 µM (inactive)	> 25 µM (inactive)	> 25 µM (inactive)	> 25 µM (inactive)	> 25 µM (inactive)
COc1ccc(/C=c2\sc3nnc(CCC(=O)Nc4cccc(C(F)(F)F)c4)n3c2=O)cc1	> 100 µM (inactive)	> 100 µM (inactive)	> 100 µM (inactive)	> 100 µM (inactive)	> 100 µM (inactive)	> 100 µM (inactive)		> 94.2 µM (inactive)	72.9 µM (inactive)	97.5 µM (inactive)	37.2 µM (inactive)	> 100 µM (inactive)	> 100 µM (inactive)	> 62.8 µM (inactive)	> 100 µM (inactive)	> 100 µM (inactive)	> 100 µM (inactive)	> 100 µM (inactive)	> 75.7 µM (inactive)	42.6 µM (inactive)
CC(=O)NC1C(Sc2ncn(C3OC(CO)C(O)C(O)C3NC(C)=O)n2)OC(CO)C(O)C1O (stereo not drawn)	> 100 µM (inactive)	> 100 µM (inactive)	> 100 µM (inactive)	> 100 µM (inactive)	> 100 µM (inactive)	> 100 µM (inactive)	> 100 µM (inactive)	> 100 µM (inactive)	> 100 µM (inactive)	> 100 µM (inactive)	29 µM (inactive)	> 100 µM (inactive)	> 100 µM (inactive)	> 100 µM (inactive)	> 100 µM (inactive)		> 100 µM (inactive)	> 100 µM (inactive)		
O=C1N/C(=N/N=C/c2ccccc2)N/C1=C\c1c[nH]c2ccccc12	71.6 µM (inactive)	> 100 µM (inactive)	44.1 µM (inactive)	> 100 µM (inactive)	> 100 µM (inactive)	> 100 µM (inactive)	22.6 µM (inactive)	21.9 µM (inactive)	> 100 µM (inactive)	56.6 µM (inactive)	11.4 µM (inactive)	> 100 µM (inactive)	> 100 µM (inactive)	> 100 µM (inactive)	> 100 µM (inactive)	72.6 µM (inactive)	22.8 µM (inactive)	64.4 µM (inactive)	> 100 µM (inactive)	
CCc1cccc(C(C)C)c1NC(=O)C(=O)C(CC(=O)Nc1ccc(Cl)c(Cl)c1)C(=O)OC (stereo not drawn)	54.3 µM (inactive)	> 100 µM (inactive)	> 100 µM (inactive)	> 100 µM (inactive)	51.3 µM (inactive)	> 100 µM (inactive)		> 100 µM (inactive)	> 100 µM (inactive)	> 100 µM (inactive)	> 100 µM (inactive)	> 100 µM (inactive)	34.3 µM (inactive)	2.18 µM (inactive)	> 100 µM (inactive)	> 100 µM (inactive)	> 100 µM (inactive)	10 µM (inactive)	> 100 µM (inactive)	> 100 µM (inactive)
COCCCNC(=O)C1C(=O)C(=O)N(CCCOC)C1=O (stereo not drawn)	> 100 µM (inactive)	> 100 µM (inactive)	> 100 µM (inactive)	> 100 µM (inactive)	> 100 µM (inactive)	> 100 µM (inactive)		> 100 µM (inactive)	> 100 µM (inactive)	> 100 µM (inactive)	> 100 µM (inactive)	> 100 µM (inactive)	> 100 µM (inactive)	> 100 µM (inactive)	> 100 µM (inactive)	> 100 µM (inactive)	> 100 µM (inactive)	> 100 µM (inactive)	> 100 µM (inactive)	> 100 µM (inactive)
CCCCCCc1cc2cc(C(=O)Nc3ccc(F)cc3)c(=N)oc2cc1O	2.92 µM (inactive)	3.96 µM (inactive)	2.08 µM (inactive)	16 µM (inactive)		3.37 µM (inactive)	3.37 µM (inactive)	2.45 µM (inactive)	3.13 µM (inactive)	0.735 µM (active)	1.35 µM (inactive)	2.52 µM (inactive)	2.51 µM (inactive)	1.92 µM (inactive)	2.17 µM (inactive)		2.98 µM (inactive)	3.25 µM (inactive)		2.62 µM (inactive)

— ChEMBL document CHEMBL1201862, “PubChem BioAssay data set” (2004)
